Assays:
Assay in all cases: relative viability (nuclei count vs DMSO), 5 days (fraction); higher = more cells survive
BI-2536 + Luminespib = compound: CC[C@@H]1C(=O)N(C)c2cnc(Nc3ccc(C(=O)NC4CCN(C)CC4)cc3OC)nc2N1C1CCCC1 [BI-2536] + CCNC(=O)c1noc(-c2cc(C(C)C)c(O)cc2O)c1-c1ccc(CN2CCOCC2)cc1 [Luminespib] (partner 0.01 µM)
Outline: (§1)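 Lung cancer cell lines, seeded in 1536-well plates, were treated the following day by pin tool with a single drug or with five library-drug doses (not always all listed) in √10 steps on top of a fixed anchor-drug dose. Cells were fixed and nuclei stained in one step after 5 days, and nuclei were counted. Relative viability is the nuclei count for treated wells divided by that for vehicle wells, reported as medians of duplicate plates.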

BI-2536 + Olaparib = compound: CC[C@@H]1C(=O)N(C)c2cnc(Nc3ccc(C(=O)NC4CCN(C)CC4)cc3OC)nc2N1C1CCCC1 [BI-2536] + O=C(c1cc(Cc2n[nH]c(=O)c3ccccc23)ccc1F)N1CCN(C(=O)C2CC2)CC1 [Olaparib] (partner 8 µM)
Outline: as §1

BI-2536 + Tozasertib = compound: CC[C@@H]1C(=O)N(C)c2cnc(Nc3ccc(C(=O)NC4CCN(C)CC4)cc3OC)nc2N1C1CCCC1 [BI-2536] + Cc1cc(Nc2cc(N3CCN(C)CC3)nc(Sc3ccc(NC(=O)C4CC4)cc3)n2)n[nH]1 [Tozasertib] (partner 0.1 µM)
Outline: as §1

[1] = compound: CC1CC(=O)N(C2=CN=C(N=C2N1C3CCCC3)NC4=C(C=C(C=C4)C(=O)NC5CCN(CC5)C)OC)C [NPK76-II-72-1] + O=C(CCCCCCC(=O)Nc1ccccc1)NO [Vorinostat] (partner 1 µM)
Outline: as §1

Cell Line | relative viability (BI-2536 + Luminespib; first compound 0.01 µM) | relative viability (BI-2536 + Luminespib; first compound 0.03162 µM) | relative viability (BI-2536 + Luminespib; first compound 0.1 µM) | relative viability (BI-2536 + Luminespib; first compound 0.3162 µM) | relative viability (BI-2536 + Luminespib; first compound 1 µM) | relative viability (BI-2536 + Olaparib; first compound 0.01 µM) | relative viability (BI-2536 + Olaparib; first compound 0.03162 µM) | relative viability (BI-2536 + Olaparib; first compound 0.1 µM) | relative viability (BI-2536 + Olaparib; first compound 0.3162 µM) | relative viability (BI-2536 + Olaparib; first compound 1 µM) | relative viability (BI-2536 + Tozasertib; first compound 0.01 µM) | relative viability (BI-2536 + Tozasertib; first compound 0.03162 µM) | relative viability (BI-2536 + Tozasertib; first compound 0.1 µM) | relative viability (BI-2536 + Tozasertib; first compound 0.3162 µM) | relative viability (BI-2536 + Tozasertib; first compound 1 µM) | relative viability ([1]; first compound 0.01 µM) | relative viability ([1]; first compound 0.03162 µM) | relative viability ([1]; first compound 0.1 µM) | relative viability ([1]; first compound 0.3162 µM) | relative viability ([1]; first compound 1 µM)
SK-LU-1 | 0.216 | 0.2 | 0.167 | 0.174 | 0.169 | 0.418 | 0.503 | 0.302 | 0.179 | 0.167 | 0.323 | 0.317 | 0.323 | 0.218 | 0.176 | 0.722 | 0.77 | 0.756 | 0.77 | 0.851
NCI-H1975 | 0.253 | 0.209 | 0.231 | 0.158 | 0.149 | 0.776 | 0.71 | 0.544 | 0.161 | 0.169 | 0.664 | 0.673 | 0.393 | 0.116 | 0.0975 | 0.676 | 0.736 | 0.662 | 0.694 | 0.712
NCI-H1651 | 0.689 | 1.04 | 0.333 | 0.146 | 0.139 | 0.185 | 0.173 | 0.157 | 0.142 | 0.109 | 0.685 | 0.795 | 0.429 | 0.104 | 0.0989 | 0.57 | 0.565 | 0.634 | 0.557 | 0.607
NCI-H441 | 0.296 | 0.32 | 0.288 | 0.237 | 0.271 | 0.522 | 0.354 | 0.171 | 0.148 | 0.148 | 0.557 | 0.352 | 0.274 | 0.293 | 0.31 | 0.64 | 0.839 | 0.881 | 0.881 | 0.851
LCLC-103H | 0.95 | 1.05 | 0.842 | 0.188 | 0.184 | 0.742 | 0.86 | 0.77 | 0.358 | 0.216 | 0.471 | 0.412 | 0.284 | 0.292 | 0.252 | – | 0.83 | 0.769 | 0.745 | 0.838
LCLC-97TM1 | 0.785 | 0.641 | 0.504 | 0.14 | 0.175 | 0.463 | 0.292 | 0.233 | 0.0868 | 0.0916 | 0.236 | 0.184 | 0.176 | 0.182 | 0.178 | 0.682 | 1.03 | 0.561 | 0.61 | 0.814
NCI-H727 | 0.589 | 0.324 | 0.263 | 0.4 | 0.201 | 0.589 | 0.765 | 0.643 | 0.461 | 0.576 | 0.646 | 0.695 | 0.672 | 0.496 | 0.392 | 1.23 | 1.33 | 1.2 | 1.22 | 1.29
NCI-H1355 | 0.612 | 0.547 | 0.546 | 0.2 | 0.187 | 0.728 | 0.598 | 0.536 | 0.169 | 0.17 | 0.528 | 0.434 | 0.295 | 0.212 | 0.195 | 0.597 | 0.613 | 0.606 | 0.56 | 0.715
HOP-62 | 0.949 | 0.84 | 0.419 | 0.121 | 0.188 | – | 0.309 | 0.191 | 0.101 | 0.089 | 0.337 | 0.424 | 0.29 | 0.204 | 0.219 | 0.618 | 0.767 | 0.598 | 0.39 | 0.713
NCI-H2085 | 0.396 | 0.5 | 0.384 | 0.29 | 0.262 | 0.786 | 0.697 | 0.544 | 0.341 | 0.381 | 0.787 | 0.737 | 0.478 | 0.368 | 0.438 | 0.731 | 0.808 | 0.794 | 0.821 | 0.842

Source: the supplement of paper PMC10307832
